Experimental findings from BindingDB's records for doi:10.1016/j.bmc.2006.07.028 (University of Florence, 2006) are described below.

For assay [1], the target named is T1, Macrophage metalloelastase (Homo sapiens, UniProt P39900). Description: Dissociation Constants (KD) Measurements and Enzyme Inhibition Assay (IC50). Conditions: pH 7; 25 °C. How it is done:
The NMR experiments were performed to determine the binding affinity (KD) for the MMP-12 catalytic domain. The alteration of the chemical shifts induced on 2D 1H-15N HSQC upon the titration with the test compound was analyzed. The fit of the experimental data as a function of ligand concentration provided dissociation constant. The inhibition potency (IC50) was measured by fluorescent enzymatic assays. The compounds were evaluated for their ability to inhibit the hydrolysis of fluorescence-quenched peptide substrate. […] Fitting of hydrolysis rate as a function of inhibitor concentration provided IC50.

Assay [2] addresses Collagenase 3 (Homo sapiens, UniProt P45452). As to the kind of experiment: Inhibition Potency Measurements. Conditions: pH 7; 25 °C. The method, then: (§1) The inhibition potency (IC50) was measured by fluorescent enzymatic assays. The compounds were evaluated for their ability to inhibit the hydrolysis of fluorescence-quenched peptide substrate. […] Fitting of hydrolysis rate as a function of inhibitor concentration provided IC50.

In assay [3] the target is T2, Interstitial collagenase (Homo sapiens, UniProt P03956).
T2 sequence (P03956 whole entry): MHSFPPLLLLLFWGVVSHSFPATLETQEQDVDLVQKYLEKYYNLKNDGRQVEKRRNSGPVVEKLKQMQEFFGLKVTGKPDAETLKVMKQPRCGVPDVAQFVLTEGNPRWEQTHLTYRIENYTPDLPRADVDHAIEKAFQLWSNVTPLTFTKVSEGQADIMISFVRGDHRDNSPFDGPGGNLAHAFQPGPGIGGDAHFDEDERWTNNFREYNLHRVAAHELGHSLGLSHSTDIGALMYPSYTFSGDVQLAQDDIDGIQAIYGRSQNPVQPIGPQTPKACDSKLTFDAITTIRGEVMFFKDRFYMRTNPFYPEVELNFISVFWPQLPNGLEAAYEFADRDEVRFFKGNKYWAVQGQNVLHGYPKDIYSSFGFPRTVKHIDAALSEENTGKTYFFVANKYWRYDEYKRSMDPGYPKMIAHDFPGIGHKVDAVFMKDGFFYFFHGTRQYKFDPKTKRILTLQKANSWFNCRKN
Description: Inhibition Potency Measurements. As to conditions: pH 7; 25 °C. How it is done:
as §1

For assay [4], the target named is T3, Matrilysin (Homo sapiens, UniProt P09237).
T3 sequence (P09237 whole entry): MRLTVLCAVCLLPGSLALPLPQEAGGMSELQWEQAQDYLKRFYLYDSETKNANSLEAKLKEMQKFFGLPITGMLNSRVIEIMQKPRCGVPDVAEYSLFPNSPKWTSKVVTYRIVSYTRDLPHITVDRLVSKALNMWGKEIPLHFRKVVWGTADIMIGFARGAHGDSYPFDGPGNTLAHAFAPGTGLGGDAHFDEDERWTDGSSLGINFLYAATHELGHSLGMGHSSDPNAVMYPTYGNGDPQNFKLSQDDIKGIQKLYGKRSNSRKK
As to the kind of experiment: Inhibition Potency Measurements. Conditions: pH 7; 25 °C. How it is done:
as §1

Assay [5] has as its target Neutrophil collagenase (Homo sapiens, UniProt P22894). As to the kind of experiment: Inhibition Potency Measurements. As to conditions: pH 7; 25 °C. How it is done: as §1
For assay [6], the target named is Stromelysin-2 (Homo sapiens, UniProt P09238). As to the kind of experiment: Inhibition Potency Measurements. As to conditions: pH 7; 25 °C. The method, then:
as §1

In assay [7] the target is T1, Macrophage metalloelastase. As to the kind of experiment: Dissociation Constants (KD) Measurements. As to conditions: pH 7.2; 25 °C. How it is done: The NMR experiments were performed to determine the binding affinity (KD) for the MMP-12 catalytic domain. The alteration of the chemical shifts induced on 2D 1H-15N HSQC upon the titration with the test compound was analyzed. The fit of the experimental data as a function of ligand concentration provided dissociation constant.

T1 sequence (P39900 whole entry, the tested form may be a part): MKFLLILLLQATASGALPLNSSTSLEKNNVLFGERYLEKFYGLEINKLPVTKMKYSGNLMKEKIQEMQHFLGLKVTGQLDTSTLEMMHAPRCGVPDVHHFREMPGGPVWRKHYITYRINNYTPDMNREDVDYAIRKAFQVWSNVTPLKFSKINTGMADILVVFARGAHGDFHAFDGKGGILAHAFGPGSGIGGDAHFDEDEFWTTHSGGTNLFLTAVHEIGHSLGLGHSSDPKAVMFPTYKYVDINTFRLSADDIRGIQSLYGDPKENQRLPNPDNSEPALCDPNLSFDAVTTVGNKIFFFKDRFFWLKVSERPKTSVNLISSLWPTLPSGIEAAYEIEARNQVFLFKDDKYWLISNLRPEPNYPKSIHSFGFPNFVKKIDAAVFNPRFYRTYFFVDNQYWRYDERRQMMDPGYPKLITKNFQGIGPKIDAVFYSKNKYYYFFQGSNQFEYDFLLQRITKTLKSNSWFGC
Stromelysin-2, sequence (P09238 whole entry): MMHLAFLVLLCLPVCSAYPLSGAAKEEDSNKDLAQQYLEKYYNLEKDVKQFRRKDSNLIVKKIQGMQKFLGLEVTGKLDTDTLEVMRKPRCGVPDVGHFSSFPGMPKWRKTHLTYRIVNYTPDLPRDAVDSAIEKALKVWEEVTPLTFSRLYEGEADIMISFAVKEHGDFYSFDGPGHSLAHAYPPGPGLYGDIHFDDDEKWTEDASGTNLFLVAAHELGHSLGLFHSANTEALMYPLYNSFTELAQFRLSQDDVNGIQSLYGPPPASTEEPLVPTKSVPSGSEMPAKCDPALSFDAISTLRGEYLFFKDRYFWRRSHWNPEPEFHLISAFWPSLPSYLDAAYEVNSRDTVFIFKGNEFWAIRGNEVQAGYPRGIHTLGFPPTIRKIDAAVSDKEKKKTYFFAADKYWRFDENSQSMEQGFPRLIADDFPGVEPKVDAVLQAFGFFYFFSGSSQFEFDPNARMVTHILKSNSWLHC
Neutrophil collagenase, sequence (P22894 whole entry): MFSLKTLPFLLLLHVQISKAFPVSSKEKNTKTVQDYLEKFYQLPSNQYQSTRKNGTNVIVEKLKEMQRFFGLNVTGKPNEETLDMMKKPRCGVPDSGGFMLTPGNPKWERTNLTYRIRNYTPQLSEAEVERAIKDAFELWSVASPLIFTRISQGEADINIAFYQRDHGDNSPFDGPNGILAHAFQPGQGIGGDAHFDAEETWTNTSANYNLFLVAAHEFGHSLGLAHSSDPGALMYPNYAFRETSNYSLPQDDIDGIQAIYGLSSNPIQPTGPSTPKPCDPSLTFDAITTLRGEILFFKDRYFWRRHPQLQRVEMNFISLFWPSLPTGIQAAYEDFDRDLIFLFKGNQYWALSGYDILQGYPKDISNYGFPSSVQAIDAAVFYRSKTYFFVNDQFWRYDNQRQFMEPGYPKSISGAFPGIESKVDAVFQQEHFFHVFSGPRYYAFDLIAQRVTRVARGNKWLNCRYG

On to `O=C(NO)[C@@H]1O[C@H]2CN(Cc3ccc(-c4ccccc4)cc3)C(=O)[C@@H]1O2` [(1R,5S,7R)-N-hydroxy-2-oxo-3-[(4-phenylphenyl)methyl]-6,8-dioxa-3-azabicyclo[3.2.1]octane-7-carboxamide], for which, in assay [1], the 50% inhibitory concentration (IC50) is 425 µM and the dissociation constant Kd was > 500 µM. For the molecule `O=C(O)[C@@H]1O[C@H]2CN(Cc3ccc(-c4ccccc4)cc3)C[C@@H]1O2` [(1S,5S,7R)-3-[(4-phenylphenyl)methyl]-6,8-dioxa-3-azabicyclo[3.2.1]octane-7-carboxylic acid], in assay [1], the half-inhibitory concentration (IC50) was determined as 835 µM and the Kd was > 1000 µM. On to `O=C(NO)[C@@H]1O[C@H]2CN(Cc3ccc(-c4ccccc4)cc3)C[C@@H]1O2` [(1S,5S,7R)-N-hydroxy-3-[(4-phenylphenyl)methyl]-6,8-dioxa-3-azabicyclo[3.2.1]octane-7-carboxamide], for which, in assay [1], the IC50 amounted to 399 µM and the Kd was > 500 µM. As for `O=C(O)[C@@H]1O[C@H]2CN(Cc3ccc(-c4ccccc4)cc3)C(=O)[C@@H]1O2` [(1R,5S,7R)-2-oxo-3-[(4-phenylphenyl)methyl]-6,8-dioxa-3-azabicyclo[3.2.1]octane-7-carboxylic acid], in assay [1], the half-inhibitory concentration (IC50) was 954 µM and the dissociation constant (Kd) was > 1000 µM. As to `O=C(NCc1ccc(-c2ccccc2)cc1)[C@@H]1O[C@H]2CN(C(=O)NO)C[C@@H]1O2` [(1S,5S,7R)-3-N-hydroxy-7-N-[(4-phenylphenyl)methyl]-6,8-dioxa-3-azabicyclo[3.2.1]octane-3,7-dicarboxamide], the concentration for half-maximal inhibition (IC50) in assay [2] is 778 µM; in assay [3], 1180 µM; in assay [4] it was 1510 µM; in assay [5], 513 µM; in assay [6], 865 µM. `CCOC(=O)C1CCN(C(=O)NO)CC1` [ethyl 1-(hydroxycarbamoyl)piperidine-4-carboxylate] showed a Kd in assay [7] of 3400 µM.

As to `O=C(O)[C@@H]1O[C@H]2CN(Cc3ccccc3)C(=O)[C@@H]1O2` [(1R,5S,7R)-3-benzyl-2-oxo-6,8-dioxa-3-azabicyclo[3.2.1]octane-7-carboxylic acid], the Kd in assay [7] was > 10000 µM.

For the molecule `O=C(O)[C@@H]1O[C@H]2CN(Cc3ccccc3)C[C@@H]1O2` [(1S,5S,7R)-3-benzyl-6,8-dioxa-3-azabicyclo[3.2.1]octane-7-carboxylic acid], the dissociation constant (Kd) in assay [7] is > 10000 µM. For `O=C(NO)[C@@H]1O[C@H]2CN(Cc3ccccc3)C(=O)[C@@H]1O2` [(1R,5S,7R)-3-benzyl-N-hydroxy-2-oxo-6,8-dioxa-3-azabicyclo[3.2.1]octane-7-carboxamide], the dissociation constant Kd in assay [7] is > 10000 µM.
